IC50 data for 1 compound are collected here from PMC3725620 (Breast cancer research and treatment, 2011).

pIC50: −log10 of the molar value.

In assay [1] the target is prostaglandin E receptor EP4 (Homo sapiens, UniProt P35408). Nature of the assay: inhibition of 3H-PGE2 radioligand binding. Type of assay: cell-based.
The target of assay [2] is prostaglandin E receptor EP2 (Homo sapiens, UniProt P43116). The experiment in a line: inhibition of 3H-PGE2 radioligand binding. Type of assay: cell-based.
Chain of prostaglandin E receptor EP2 (P43116 whole entry): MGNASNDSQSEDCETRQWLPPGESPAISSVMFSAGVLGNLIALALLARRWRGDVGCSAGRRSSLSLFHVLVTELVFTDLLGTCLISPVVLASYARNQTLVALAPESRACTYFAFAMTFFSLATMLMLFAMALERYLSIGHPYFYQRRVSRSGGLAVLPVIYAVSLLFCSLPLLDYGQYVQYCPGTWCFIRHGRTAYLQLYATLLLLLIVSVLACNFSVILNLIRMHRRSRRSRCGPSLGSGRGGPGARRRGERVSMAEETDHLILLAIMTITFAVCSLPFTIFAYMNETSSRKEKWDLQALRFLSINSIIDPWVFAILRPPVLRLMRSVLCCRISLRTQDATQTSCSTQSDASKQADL

Chain of prostaglandin E receptor EP4 (P35408 whole entry): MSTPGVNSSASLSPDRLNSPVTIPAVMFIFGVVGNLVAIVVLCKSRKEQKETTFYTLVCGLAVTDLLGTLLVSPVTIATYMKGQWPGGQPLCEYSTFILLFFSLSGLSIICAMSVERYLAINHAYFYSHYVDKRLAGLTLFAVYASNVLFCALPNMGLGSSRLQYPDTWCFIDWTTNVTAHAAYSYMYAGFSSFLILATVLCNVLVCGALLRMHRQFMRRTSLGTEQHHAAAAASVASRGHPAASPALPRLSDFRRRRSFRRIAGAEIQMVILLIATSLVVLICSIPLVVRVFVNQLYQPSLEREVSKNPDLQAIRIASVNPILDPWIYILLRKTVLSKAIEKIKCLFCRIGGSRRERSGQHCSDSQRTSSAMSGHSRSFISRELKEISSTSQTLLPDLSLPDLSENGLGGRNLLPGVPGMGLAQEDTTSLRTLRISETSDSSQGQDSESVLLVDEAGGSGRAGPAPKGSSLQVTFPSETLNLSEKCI

One may read the pIC50 as the IC50 on a negative log10 scale, so that one unit is a factor of ten. Take `CO[C@@H]1[C@@H](O)[C@H](O[C@@H]2[C@@H](O)[C@H](O[C@H]3[C@H](O)[C@@H](O[C@@H]4OC[C@@H](O)[C@H](O)[C@H]4O)[C@H](O[C@H]4[C@H](OC5CC[C@]6(C)[C@H]7CCC89C(=O)O[C@@](C)(CCCC(C)C)C8[C@@H](OC(C)=O)C[C@@]9(C)C7=CC[C@H]6C5(C)C)OC[C@@H](OS(=O)(=O)O)[C@@H]4O)O[C@@H]3C)OC[C@H]2O)O[C@H](CO)[C@H]1O` (some centres unmarked) [FA, Frondoside A]: the pIC50 in assay [1] is approximately 5.43; in assay [2], 4.78.
